Source: patent publication US8530512B2, “Broad spectrum gram-positive antimicrobials and anthelmintics with efficacy against drug-resistant strains and Mycobacterium species” (priority 2004, dated 2013)
≈ marks a conversion by molar mass, not a printed value. Where two headings read alike, the source gives them in different places.

Experiments:
Mycobacterium chelonae = test: MIC assay; assay type: cell-based; conditions: Table 6; for MIC: read-out: MIC M. chelonae
Bacillus cereus = test: microbe, parasite or virus in culture; assay type: cell-based; conditions: Bacillus cereus; per-compound listing, Example 6; read-out: MIC B. cereus
Mycobacterium fortuitum = test: MIC assay; assay type: cell-based; conditions: Table 6; for MIC: Mycolicibacterium fortuitum, read-out: MIC M. fortuitum
[1] = system: Staphylococcus aureus ATCC 29213; test: microbe, parasite or virus in culture; assay type: cell-based; conditions: for MIC: Staphylococcus aureus, ATCC29213
M. smegmatis = test: MIC assay; assay type: cell-based; conditions: for MIC: Mycolicibacterium smegmatis, read-out: MIC M. smegmatis
[2] = system: Staphylococcus aureus MRSA MC-1; test: microbe, parasite or virus in culture; assay type: cell-based; conditions: for MIC: Staphylococcus aureus, MRSA; for MIC S. aureus MC-1: Table 6
[3] = system: Mycobacterium intracellulare; test: MIC assay; assay type: cell-based; conditions: Table 6; for MIC: Mycobacterium intracellulare, read-out: MIC M. intracellulare
C. elegans = test: motility assay; assay type: in vivo; parameters: key to Movement score, 1/1600 / Movement score, 1/800 / Movement score, 1/400 / Movement score, 1/200 / Movement score, 1/100: normal (−); slow (+); very slow (++); not motile/paralyzed (+++); conditions: Ive 1 ng/μL in all wells; for Movement score, 1/100: dilution 1/100 of stock (10.24 μg/μL; SK-03-92 1.024 μg/μL); for Movement score, 1/200: dilution 1/200 of stock (10.24 μg/μL; SK-03-92 1.024 μg/μL); for Movement score, 1/400: dilution 1/400 of stock (10.24 μg/μL; SK-03-92 1.024 μg/μL); for Movement score, 1/800: dilution 1/800 of stock (10.24 μg/μL; SK-03-92 1.024 μg/μL); for Movement score, 1/1600: dilution 1/1600 of stock (10.24 μg/μL; SK-03-92 1.024 μg/μL), overnight 20° C.
Mycobacterium avium = test: MIC assay; assay type: cell-based; conditions: Table 6; for MIC: Mycobacterium avium, read-out: MIC M. avium
M. kansasii = test: MIC assay; assay type: cell-based; conditions: Table 6; for MIC: Mycobacterium kansasii, read-out: MIC M. kansasii
[4] = Table 6, read-out: MIC S. aureus ATCC 29213

Compound	MIC (Mycobacterium chelonae) [µg/mL]	MIC (Mycobacterium fortuitum) [µg/mL]	MIC [1, 4] [µg/mL]	MIC M. smegmatis (M. smegmatis; Table 6) [µg/mL]	MIC ([2]; read-out: MIC S. aureus MC-1) [µg/mL]	MIC [3] [µg/mL]	MIC (Mycobacterium avium) [µg/mL]	MIC (M. kansasii) [µg/mL]	MIC M. chelonae (Mycobacterium chelonae) [µg/mL]	MIC M. fortuitum (Mycobacterium fortuitum) [µg/mL]	MIC S. aureus ATCC 29213 ([1]; Table 6) [µg/mL]	MIC S. aureus MC-1 [2] [µg/mL]	MIC M. intracellulare [3] [µg/mL]	MIC M. avium (Mycobacterium avium) [µg/mL]	MIC M. kansasii (M. kansasii) [µg/mL]	further results
COc1cc(O)cc(/C=C/Oc2cccc3ccccc23)c1 [SK-04-22]	256 (≈ 876 µM)	128 (≈ 438 µM)	16 (≈ 54.7 µM)	128 (≈ 438 µM)	16 (≈ 54.7 µM)	128 (≈ 438 µM)	64 (≈ 219 µM)	64 (≈ 219 µM)								MIC (Bacillus cereus): 8 µg/mL (≈ 27.4 µM); MIC ([1]; per-compound listing, Example 6, read-out: MIC S. aureus): 32 µg/mL (≈ 109 µM); MIC (M. smegmatis; per-compound listing, Example 6): 128 µg/mL (≈ 438 µM); MIC ([2]; read-out: MIC MRSA): 16 µg/mL (≈ 54.7 µM); Movement score, 1/100 (C. elegans): ++; Movement score, 1/200 (C. elegans): +; Movement score, 1/400 (C. elegans): +; Movement score, 1/800 (C. elegans): −; Movement score, 1/1600 (C. elegans): −
CCOC(=O)/C=C\Sc1ccccc1C(=O)OC [SK-04-56]	64 (≈ 240 µM)	64 (≈ 240 µM)	> 512		> 512	256 (≈ 961 µM)	64 (≈ 240 µM)	64 (≈ 240 µM)								MIC (M. smegmatis; Table 6): 64 µg/mL (≈ 240 µM)
CCOC(=O)/C=C\Sc1ccc(C(C)(C)C)cc1 [SK-04-57]	8 (≈ 30.3 µM)	4 (≈ 15.1 µM)	> 512		> 512	128 (≈ 484 µM)	64 (≈ 242 µM)	16 (≈ 60.5 µM)								MIC (M. smegmatis; Table 6): 16 µg/mL (≈ 60.5 µM); Movement score, 1/100 (C. elegans): +; Movement score, 1/200 (C. elegans): −; Movement score, 1/400 (C. elegans): −; Movement score, 1/800 (C. elegans): −; Movement score, 1/1600 (C. elegans): −
CCOC(=O)/C=C\Sc1ncccn1 [SK-04-58F]				64 (≈ 304 µM)					32 (≈ 152 µM)	64 (≈ 304 µM)	>512	>512	128 (≈ 609 µM)	64 (≈ 304 µM)	64 (≈ 304 µM)	
CCOC(=O)/C=C\Sc1nc2ccccc2s1 [SK-04-59F]				16 to 32					8 (≈ 30.1 µM)	16 (≈ 60.3 µM)	>512	>512	16 (≈ 60.3 µM)	64 (≈ 241 µM)	8 (≈ 30.1 µM)	
N#Cc1cccc(/C=C/SC2=NCCS2)c1 [SK-04-72]				64 (≈ 260 µM)					64 (≈ 260 µM)	64 (≈ 260 µM)	>512	>512	64 (≈ 260 µM)	64 (≈ 260 µM)		
N#Cc1cccc(/C=C/Sc2ncccn2)c1 [SK-04-73]				64 (≈ 267 µM)					256 (≈ 1070 µM)	256 (≈ 1070 µM)	512 (≈ 2140 µM)	>512	512 (≈ 2140 µM)	512 (≈ 2140 µM)	128 (≈ 535 µM)	
